In article PMC8145430 (Chemical Science, 2019):

Tested on: A549 cells
Assay: Confocal imaging of intracellular localization of fluorescein-labeled peptides
Format: cell-based, human
Conditions: 1 μM, 10 minutes, 37°C, confocal images

## H-GLFDIIKKIAESF-K(FAM)K5SKTKC(Far)-OMe [FAM-Memrasin]
  tethering on the PM: displays a clearer tethering on the PM
